Laboratory results from US20100143475A1, “TRANSDERMAL THERAPEUTIC SYSTEM WITH TWO-PHASE RELEASE PROFILE” (priority 2006, published 2010).
Where two headings read alike, the source gives them in different places.

Key:
[1] = double blind, oral, PDR 58, 2004, cited from earlier work
[2] = oral, cited from earlier work
[3] = Oral ropinirole trial, comparison of central side effects (Table 5); type: in vivo, human; conditions: difference to placebo, up to 24 mg (8 mg TID), 6 months
[4] = difference to placebo
[5] = cited from earlier work
[6] = 20 cm^2 TTS, plasma
From the text: The application site was the upper arm and changed from one arm to the other between two successive periods.

[7] = Double blind comparison of oral lisuride and placebo in 20 patients with Parkinson's disease; conditions: up to maximum tolerance dose of 5 mg daily, immediate-release tablet, eight of 20 patients
From the text: The dosage of other active substances was kept unchanged during the trial.

[8] = up to 24 mg (8 mg TID) daily, 6 months
[9] = oral, 4.5 mg or max. tol. dose, 7 weeks dose esc. +4 weeks
[10] = oral, 4.5 mg or max. tol. dose daily, 7 weeks dose esc. +4 weeks
[11] = difference to placebo (footnote: less than placebo), transdermal, 2 (20 cm^2) QOD, 14 weeks
[12] = difference to placebo, transdermal, 2 (20 cm^2) QOD, 14 weeks
[13] = transdermal, 2 (20 cm^2) QOD, 14 weeks, 335 Parkinsonism patients

With CCCN(CCC)CCc1cccc2c1CC(=O)N2 [Ropinirol] as the compound, how does the “GI side effects: Nausea/vomiting (%)” value ([1]; dose range 0.5-5.0 mg, n = 157) read?
The value was 45.8%.

What about the “Other psych.*” value ([2]; amnesia, fear, abnormal dreams, nervousness, delusions, paranoid reactions, sleeplessness, up to 24 mg (8 mg TID), 6 months) of the same compound?
The value was 19.

What about the Confusion [2, 8] of the same compound?
The Confusion was 9.

And the Dizziness [2, 8]?
The Dizziness was 26.

What about the Drownsiness [2, 8] of the same compound?
The Drownsiness was 20.

And the Dyskinesias [2, 8]?
The Dyskinesias was 34.

What about the Hallucinations [2, 8] of the same compound?
The Hallucinations was 10.

What about the Hypotension [2, 8] of the same compound?
Its Hypotension is 2.

And the Nausea [2, 8]?
Its Nausea is 30.

What about the Syncope [2, 8] of the same compound?
The Syncope was 3.

What about the Vomiting [2, 8] of the same compound?
Its Vomiting is 7.

What about the Fatigue ([2]; data from restless legs study) of the same compound?
The Fatigue was 8^♦.

What about the “Confusion Δ” value [3] of the same compound?
The value was 7.

And the “Dizziness Δ” value [3]?
Its value is 10.

And the “Drownsiness Δ” value [3]?
The value was 12.

What about the “Dyskinesias Δ” value [3] of the same compound?
Its value is 21.

What about the “Hallucinations Δ” value [3] of the same compound?
The value was 6.

And the “Hypotension Δ” value [3]?
The value was 1.

What about the “Nausea Δ” value [3] of the same compound?
The value was 12.

What about the “Other psych.* Δ” value [3] of the same compound?
Its value is 10.

And the “Syncope Δ” value [3]?
The value was 1.

What about the “Vomiting Δ” value [3] of the same compound?
The value was 3.

With C=CCN1C[C@H](C(=O)N(CCCN(C)C)C(=O)NCC)C[C@@H]2c3cccc4[nH]cc(c34)C[C@H]21 [Cabergoline] as the compound, how does the “GI side effects: Nausea/vomiting (%)” value ([1]; dose range 0.25-1.0 mg, n = 221) read?
The value was 29.0%.

With CCCN[C@H]1CCc2nc(N)sc2C1 [Pramipexol] as the compound, how does the “Hallucinations Δ” value ([4]; 8 month trial) read?
The value was 13.

What about the “Confusion Δ” value [4, 9] of the same compound?
Its value is 3.

And the “Dizziness Δ” value [4, 9]?
Its value is 0.2.

What about the “Drownsiness Δ” value [4, 9] of the same compound?
Its value is 2.

What about the “Dyskinesias Δ” value [4, 9] of the same compound?
The value was 10.2.

And the “Fatigue Δ” value [4, 9]?
The value was 24.9.

What about the “Hypotension Δ” value [4, 9] of the same compound?
Its value is 6.5.

And the “Nausea Δ” value [4, 9]?
Its value is 2.

What about the “Other psych.* Δ” value [4, 9] of the same compound?
The value was 12.4.

And the “GI side effects: Nausea/vomiting (%)” value ([1]; dose range 0.375-4.5 mg, n = 388)?
The value was 12.4%.

What about the “patients who reported hallucinations” value ([5]; 8 month trial) of the same compound?
The value was 17%.

What about the “Other psych.*” value ([5]; amnesia, fear, abnormal dreams, nervousness, delusions, paranoid reactions, sleeplessness, oral, 4.5 mg or max. tol. dose, 7 weeks dose esc. +4 weeks) of the same compound?
Its value is 28.3.

And the Confusion [5, 10]?
Its Confusion is 10.

What about the Dizziness [5, 10] of the same compound?
Its Dizziness is 2.9.

What about the Drownsiness [5, 10] of the same compound?
The Drownsiness was 9.

And the Dyskinesias [5, 10]?
Its Dyskinesias is 14.7.

What about the Fatigue [5, 10] of the same compound?
Its Fatigue is 29.4.

And the Hypotension [5, 10]?
Its Hypotension is 8.8.

What about the Nausea [5, 10] of the same compound?
The Nausea was 8.8.

For CCN(CC)C(=O)N[C@H]1C=C2c3cccc4[nH]cc(c34)CC2N(C)C1 (some centres unmarked) [Lisuride, lisuride], which “Other psych.*” value (amnesia, fear, abnormal dreams, nervousness, delusions, paranoid reactions, sleeplessness, transdermal, 2 (20 cm^2) QOD, 14 weeks) is on record?
Its value is 8.

What about the “Skin reactions resulting in discontinuation Δ” value (difference to placebo) of the same compound?
Its value is 11.3.

What about the “Dizziness Δ” value [11] of the same compound?
Its value is 0^♡.

What about the “Other psych.* Δ” value [11] of the same compound?
The value was 0^♡.

What about the “Confusion Δ” value [12] of the same compound?
The value was 1.2.

And the “Drownsiness Δ” value [12]?
Its value is 1.8.

What about the “Dyskinesias Δ” value [12] of the same compound?
The value was 4.1.

And the “Fatigue Δ” value [12]?
The value was 1.

And the “Hallucinations Δ” value [12]?
Its value is 3.6.

And the “Hypotension Δ” value [12]?
The value was 1.2.

And the “Nausea Δ” value [12]?
The value was 0.6.

What about the “Syncope Δ” value [12] of the same compound?
The value was 0.

What about the “Vomiting Δ” value [12] of the same compound?
Its value is 0.6.

And the “Skin reactions resulting in discontinuation” value (lisuride group, transdermal, 14 weeks)?
The value was 12.5%.

What about the Confusion [13] of the same compound?
Its Confusion is 1.2.

And the Dizziness [13]?
The Dizziness was 0.6.

And the Drownsiness [13]?
The Drownsiness was 3.6.

And the Dyskinesias [13]?
The Dyskinesias was 7.1.

And the Fatigue [13]?
Its Fatigue is 1.

And the Hallucinations [13]?
The Hallucinations was 5.4.

What about the Hypotension [13] of the same compound?
Its Hypotension is 2.4.

And the Syncope [13]?
Its Syncope is 0.

What about the Vomiting [13] of the same compound?
Its Vomiting is 1.2.

And the “Transition level” value ([6]; First application)?
The value was 32 pg/mL.

What about the Peak level ([6]; Fourth application) of the same compound?
The Peak level was 140 pg/mL.

And the “Transition level” value ([6]; Fourth application)?
Its value is 32 pg/mL.

What about the Peak level ([6]; Second application) of the same compound?
Its Peak level is 125 pg/mL.

What about the “Transition level” value ([6]; Second application) of the same compound?
The value was 23 pg/mL.

What about the Peak level ([6]; Third application) of the same compound?
The Peak level was 130 pg/mL.

And the “Transition level” value ([6]; Third application)?
The value was 31 pg/mL.

What about the “Gastrointestinal symptoms, in particular nausea (patients)” value [7] of the same compound?
The value was 40%.

With CC(C)C[C@H]1C(=O)N2CCC[C@H]2[C@]2(O)O[C@](NC(=O)[C@@H]3C=C4c5cccc6[nH]c(Br)c(c56)C[C@H]4N(C)C3)(C(C)C)C(=O)N12 [Bromocriptine] as the compound, how does the “GI side effects: Nausea/vomiting (%)” value ([1]; dose range 5.0-30.0 mg, n = 231) read?
The value was 43%.
